Assay results as given in US20220017870A1, “METHODS OF IDENTIFYING THERAPEUTIC TARGETS FOR TREATING ANGIOGENESIS” (Advanced Solutions Life Sciences, LLC, priority 2020, published 2022).

System: growing MVs (neovessels)
Test: Effect of DYRK3 inhibition on MV growth in 3D culture
Type: cell-based, human
Description: FIG. 5. Effect of DYRK3 inhibition on MV growth. Phase contrast images of MVs after 9 days of culture, with a single 3-hour exposure of DYRK3 inhibitor after initial neovessel sprouting (day 4). […] Scale=100 μm. Arrows point to neovessels.
For all assays, MVs isolated from human adipose tissue via a limited collagen digestion are embedded (100,000 MV/ml) in a 3 mg/ml collagen gel. This formulation is compatible with a variety of multi-well plates. Whenever possible, assessments are made daily over the course of 1 week, including image acquisition for HCA.
DYRK3 and angiogenesis: To further explore DYRK3 in this model, growing MVs are treated with the small molecule GSK626616, a known DYRK3 inhibitor. Cultures with growing neovessels (in RPMI with B27 and 50 ng/ml VEGF) were treated with 10 μM GSK626616 for 3 hours, and then returned to medium without inhibitor for an additional 6 days.

[1] = 10 μM for 3 hours, then medium without inhibitor for additional 6 days, RPMI with B27 and 50 ng/ml VEGF, qualitative, vs untreated controls

With `O=C1NC(=Nc2c(Cl)cccc2Cl)S/C1=C\c1ccc2nccnc2c1` [GSK626616] the “impact on parent MV” value [1] was “did not impact parent MV”, the neovessel growth [1] was “stopped neovessel growth” and the neovessel regression [1] was “may have even caused neovessel regression”. The “neovessels apparent in phase contrast images” value (after 9 days of culture, single 3-hour exposure after initial neovessel sprouting (day 4)) was “Fewer neovessels are apparent”.
